Measured values published in PubChem BioAssay (NCI).
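48-hour exposure; five concentrations; linearly interpolated endpoints. Here, GI50 denotes the concentration required for 50% inhibition of growth. TGI: concentration producing complete growth inhibition.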

Columns and labels:
Assay in all cases: growth of human tumour cells (NCI), 48 h
786-0 renal = system: 786-0 renal
A498 renal = system: A498 renal
A549 NSCLC = system: A549 NSCLC
ACHN renal = system: ACHN renal
BT-549 breast = system: BT-549 breast
CAKI-1 renal = system: CAKI-1 renal
CCRF-CEM leukemia = system: CCRF-CEM leukemia
COLO 205 colon = system: COLO 205 colon
DU-145 prostate = system: DU-145 prostate
EKVX NSCLC = system: EKVX NSCLC
HCC-2998 colon = system: HCC-2998 colon
HCT-116 colon = system: HCT-116 colon
HCT-15 colon = system: HCT-15 colon
HL-60(TB) leukemia = system: HL-60(TB) leukemia
HOP-62 NSCLC = system: HOP-62 NSCLC
HOP-92 NSCLC = system: HOP-92 NSCLC
HS 578T breast = system: HS 578T breast
HT29 colon = system: HT29 colon
IGROV1 ovarian = system: IGROV1 ovarian
K-562 leukemia = system: K-562 leukemia
KM12 colon = system: KM12 colon
LOX IMVI melanoma = system: LOX IMVI melanoma
M14 melanoma = system: M14 melanoma
MALME-3M melanoma = system: MALME-3M melanoma
MCF7 breast = system: MCF7 breast
MDA-MB-231 breast = system: MDA-MB-231 breast
MDA-MB-435 = system: MDA-MB-435
MOLT-4 leukemia = system: MOLT-4 leukemia
NCI-H226 lung = system: NCI-H226 lung
NCI-H23 lung = system: NCI-H23 lung
NCI-H460 lung = system: NCI-H460 lung
NCI-H522 lung = system: NCI-H522 lung
NCI/ADR-RES ovarian = system: NCI/ADR-RES ovarian
OVCAR-3 ovarian = system: OVCAR-3 ovarian
OVCAR-4 ovarian = system: OVCAR-4 ovarian
OVCAR-5 ovarian = system: OVCAR-5 ovarian
OVCAR-8 ovarian = system: OVCAR-8 ovarian
PC-3 prostate = system: PC-3 prostate
RPMI-8226 leukemia = system: RPMI-8226 leukemia
RXF 393 renal = system: RXF 393 renal
SF-268 CNS = system: SF-268 CNS
SF-295 CNS = system: SF-295 CNS
SF-539 CNS = system: SF-539 CNS
SK-MEL-2 melanoma = system: SK-MEL-2 melanoma
SK-MEL-28 melanoma = system: SK-MEL-28 melanoma
SK-MEL-5 melanoma = system: SK-MEL-5 melanoma
SK-OV-3 ovarian = system: SK-OV-3 ovarian
SN12C renal = system: SN12C renal
SNB-19 CNS = system: SNB-19 CNS
SNB-75 CNS = system: SNB-75 CNS
SR leukemia = system: SR leukemia
SW-620 colon = system: SW-620 colon
T-47D breast = system: T-47D breast
TK-10 renal = system: TK-10 renal
U251 CNS = system: U251 CNS
UACC-257 melanoma = system: UACC-257 melanoma
UACC-62 melanoma = system: UACC-62 melanoma
UO-31 renal = system: UO-31 renal

In the case of `CCCSc1ccc2nc(NC(=O)OC)[nH]c2c1`, the GI50 (786-0 renal) is reported as 0.634 µM, the TGI (786-0 renal) is reported as over 100 µM and the GI50 (A498 renal) is reported as 0.258 µM. The TGI (A498 renal) was 5.03 µM, the GI50 (A549 NSCLC) was 0.438 µM and the TGI (A549 NSCLC) was over 100 µM. The GI50 (ACHN renal) was 2.64 µM, the TGI (ACHN renal) was over 100 µM and the GI50 (BT-549 breast) was 1.5 µM. It also gave a TGI (BT-549 breast) of over 100 µM, a TGI (CAKI-1 renal) of over 100 µM and a GI50 (CCRF-CEM leukemia) of 0.276 µM. For the same compound, the TGI (CCRF-CEM leukemia) was over 100 µM, the GI50 (COLO 205 colon) was 0.241 µM and the TGI (COLO 205 colon) was 0.702 µM. It also gave a GI50 (DU-145 prostate) of 0.336 µM, a TGI (DU-145 prostate) of over 71.5 µM and a GI50 (EKVX NSCLC) of over 37 µM. The TGI (EKVX NSCLC) was over 100 µM, the GI50 (HCC-2998 colon) was 1.01 µM and the TGI (HCC-2998 colon) was over 33.8 µM. It also gave a GI50 (HCT-116 colon) of 0.416 µM, a TGI (HCT-116 colon) of over 100 µM and a GI50 (HCT-15 colon) of 0.366 µM. It also gave a TGI (HCT-15 colon) of over 100 µM, a GI50 (HL-60(TB) leukemia) of 0.228 µM and a TGI (HL-60(TB) leukemia) of 0.791 µM. The GI50 (HOP-62 NSCLC) was 0.38 µM, the TGI (HOP-62 NSCLC) was over 68.7 µM and the GI50 (HOP-92 NSCLC) was 0.712 µM. For the same compound, the TGI (HOP-92 NSCLC) was over 100 µM, the GI50 (HS 578T breast) was 0.378 µM and the TGI (HS 578T breast) was over 100 µM. It also gave a GI50 (HT29 colon) of 0.235 µM, a GI50 (IGROV1 ovarian) of 1.37 µM and a TGI (IGROV1 ovarian) of over 100 µM. It also gave a GI50 (K-562 leukemia) of 0.0762 µM, a TGI (K-562 leukemia) of over 100 µM and a GI50 (KM12 colon) of 0.206 µM. The TGI (KM12 colon) was over 100 µM, the GI50 (LOX IMVI melanoma) was 0.718 µM and the TGI (LOX IMVI melanoma) was over 100 µM. The GI50 (M14 melanoma) was 0.26 µM, the GI50 (MALME-3M melanoma) was 0.425 µM and the TGI (MALME-3M melanoma) was over 100 µM. For the same compound, the GI50 (MCF7 breast) was 0.38 µM, the TGI (MCF7 breast) was over 100 µM and the GI50 (MDA-MB-231 breast) was 1.06 µM. It also gave a TGI (MDA-MB-231 breast) of over 100 µM, a GI50 (MDA-MB-435) of 0.0348 µM and a TGI (MDA-MB-435) of 0.202 µM. The GI50 (MOLT-4 leukemia) was 0.547 µM, the TGI (MOLT-4 leukemia) was over 100 µM and the GI50 (NCI-H226 lung) was 0.456 µM. It also gave a TGI (NCI-H226 lung) of 5.97 µM, a GI50 (NCI-H23 lung) of 0.585 µM and a TGI (NCI-H23 lung) of over 100 µM. It also gave a GI50 (NCI-H460 lung) of 0.342 µM, a TGI (NCI-H460 lung) of over 100 µM and a GI50 (NCI-H522 lung) of 0.202 µM. The TGI (NCI-H522 lung) was 0.666 µM, the GI50 (NCI/ADR-RES ovarian) was 0.227 µM and the GI50 (OVCAR-3 ovarian) was 0.196 µM. The TGI (OVCAR-3 ovarian) was 0.509 µM, the GI50 (OVCAR-4 ovarian) was 0.792 µM and the TGI (OVCAR-4 ovarian) was over 100 µM. The GI50 (OVCAR-5 ovarian) was 2.08 µM, the TGI (OVCAR-5 ovarian) was over 100 µM and the GI50 (OVCAR-8 ovarian) was 0.486 µM. For the same compound, the TGI (OVCAR-8 ovarian) was over 100 µM, the GI50 (PC-3 prostate) was 0.354 µM and the TGI (PC-3 prostate) was over 100 µM. The GI50 (RPMI-8226 leukemia) was 0.378 µM, the TGI (RPMI-8226 leukemia) was over 100 µM and the GI50 (RXF 393 renal) was 0.208 µM. It also gave a TGI (RXF 393 renal) of 0.598 µM, a GI50 (SF-268 CNS) of 1.34 µM and a TGI (SF-268 CNS) of over 100 µM. It also gave a GI50 (SF-295 CNS) of 0.29 µM, a TGI (SF-295 CNS) of over 32.8 µM and a GI50 (SF-539 CNS) of 0.323 µM. For the same compound, the TGI (SF-539 CNS) was over 24.4 µM, the GI50 (SK-MEL-2 melanoma) was 0.538 µM and the TGI (SK-MEL-2 melanoma) was over 100 µM. It also gave a GI50 (SK-MEL-28 melanoma) of 0.952 µM, a TGI (SK-MEL-28 melanoma) of over 100 µM and a GI50 (SK-MEL-5 melanoma) of 0.29 µM. For the same compound, the TGI (SK-MEL-5 melanoma) was over 100 µM, the GI50 (SK-OV-3 ovarian) was 0.285 µM and the TGI (SK-OV-3 ovarian) was 2.91 µM. For the same compound, the GI50 (SN12C renal) was 0.823 µM, the TGI (SN12C renal) was over 100 µM and the GI50 (SNB-19 CNS) was 0.525 µM. The TGI (SNB-19 CNS) was over 100 µM, the GI50 (SNB-75 CNS) was 0.143 µM and the GI50 (SR leukemia) was 0.0482 µM. It also gave a GI50 (SW-620 colon) of 0.223 µM, a TGI (SW-620 colon) of over 100 µM and a GI50 (T-47D breast) of 0.298 µM. For the same compound, the TGI (T-47D breast) was over 100 µM, the GI50 (TK-10 renal) was over 100 µM and the TGI (TK-10 renal) was over 100 µM. The GI50 (U251 CNS) was 0.411 µM, the TGI (U251 CNS) was over 100 µM and the TGI (UACC-257 melanoma) was over 100 µM. It also gave a GI50 (UACC-62 melanoma) of 0.626 µM, a TGI (UACC-62 melanoma) of over 100 µM and a GI50 (UO-31 renal) of 0.89 µM. It also gave a TGI (UO-31 renal) of over 100 µM.

With `O=C(ON=c1c2ccccc2ccc2ccccc12)c1ccccc1` the TGI (786-0 renal) was over 62.4 µM, the TGI (A498 renal) was 50.3 µM and the TGI (A549 NSCLC) was over 92.7 µM. It also gave a TGI (ACHN renal) of over 100 µM, a TGI (BT-549 breast) of 64.2 µM and a TGI (CAKI-1 renal) of 79 µM. It also gave a TGI (CCRF-CEM leukemia) of over 76 µM, a TGI (COLO 205 colon) of 35.7 µM and a TGI (DU-145 prostate) of over 100 µM. For the same compound, the TGI (EKVX NSCLC) was 96.9 µM, the TGI (HCC-2998 colon) was over 87.7 µM and the TGI (HCT-116 colon) was 34.1 µM. For the same compound, the TGI (HCT-15 colon) was over 95.9 µM, the TGI (HL-60(TB) leukemia) was 29.5 µM and the TGI (HOP-62 NSCLC) was 59 µM. For the same compound, the TGI (HOP-92 NSCLC) was 67.5 µM, the TGI (HS 578T breast) was 59.9 µM and the TGI (HT29 colon) was over 74.2 µM. It also gave a TGI (IGROV1 ovarian) of over 67.3 µM, a TGI (K-562 leukemia) of over 58.1 µM and a TGI (KM12 colon) of 35.6 µM. The TGI (LOX IMVI melanoma) was over 62.1 µM, the TGI (M14 melanoma) was 33.5 µM and the TGI (MALME-3M melanoma) was 50.5 µM. For the same compound, the TGI (MCF7 breast) was 45.5 µM, the TGI (MDA-MB-231 breast) was over 65.2 µM and the TGI (MDA-MB-435) was 42.7 µM. It also gave a TGI (MOLT-4 leukemia) of 16.2 µM, a TGI (NCI-H226 lung) of 57.9 µM and a TGI (NCI-H23 lung) of over 100 µM. The TGI (NCI-H460 lung) was over 80.4 µM, the TGI (NCI-H522 lung) was 47.3 µM and the TGI (NCI/ADR-RES ovarian) was 56.3 µM. The TGI (OVCAR-3 ovarian) was 62.1 µM, the TGI (OVCAR-4 ovarian) was over 89.1 µM and the TGI (OVCAR-5 ovarian) was over 100 µM. For the same compound, the TGI (OVCAR-8 ovarian) was over 67.7 µM, the TGI (PC-3 prostate) was over 93 µM and the TGI (RPMI-8226 leukemia) was 73.5 µM. The TGI (RXF 393 renal) was 23.6 µM, the TGI (SF-268 CNS) was over 86 µM and the TGI (SF-295 CNS) was over 73.4 µM. It also gave a TGI (SF-539 CNS) of 32.8 µM, a TGI (SK-MEL-2 melanoma) of over 58 µM and a TGI (SK-MEL-28 melanoma) of 56.3 µM. The TGI (SK-MEL-5 melanoma) was 29.8 µM, the TGI (SK-OV-3 ovarian) was over 91.1 µM and the TGI (SN12C renal) was over 68.9 µM. It also gave a TGI (SNB-19 CNS) of over 84.1 µM, a TGI (SNB-75 CNS) of 99.7 µM and a TGI (SR leukemia) of 32.4 µM. It also gave a TGI (SW-620 colon) of 43.3 µM, a TGI (T-47D breast) of 91.4 µM and a TGI (TK-10 renal) of over 100 µM. The TGI (U251 CNS) was 39 µM, the TGI (UACC-257 melanoma) was 93.4 µM and the TGI (UACC-62 melanoma) was 30.5 µM. It also gave a TGI (UO-31 renal) of 57.4 µM.
